Data published in BindingDB's records for doi:10.1080/14756360109162375 (University of North Carolina, 2001).

Molecular target: T1, N(4)-(beta-N-acetylglucosaminyl)-L-asparaginase (Homo sapiens, UniProt P20933)
T1 sequence (P20933 whole entry): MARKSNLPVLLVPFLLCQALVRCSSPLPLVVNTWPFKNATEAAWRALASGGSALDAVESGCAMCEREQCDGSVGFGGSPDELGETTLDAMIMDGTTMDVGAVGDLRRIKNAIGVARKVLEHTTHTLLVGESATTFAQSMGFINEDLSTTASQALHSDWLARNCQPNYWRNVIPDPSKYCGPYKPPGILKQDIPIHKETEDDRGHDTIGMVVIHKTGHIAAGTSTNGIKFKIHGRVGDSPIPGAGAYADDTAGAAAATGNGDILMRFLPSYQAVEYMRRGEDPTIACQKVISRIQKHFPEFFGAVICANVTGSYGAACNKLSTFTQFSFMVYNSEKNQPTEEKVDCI
Assay: Inhibition Assay
Conditions: pH 5.8; 37 °C
Protocol: Glycosylasparaginase activity was measured in citrate-phosphate buffer at pH 5.8 at 37 C. N-Acetyl-D-glucosamine released during the reaction was measured using the Morgan-Elson assay.

Ki [µM] | Compound
5000 | O=C(O)CCC(=O)O [Succinic acid, 6]
600 | N[C@@H](CC(=O)O)C(=O)O [L-Aspartic acid, 2]
700 | CC(CC(=O)O)C(=O)O [D,L-2-Methylsuccinic acid, 5]
1400 | N[C@H](CS(=O)(=O)O)C(=O)O [L-cysteic acid]

The remaining lines, values behind:

Compound | Ki [µM]
CC(=O)NC1C(NC(=O)CCl)OC(CO)C(O)C1O (stereo not given) [GlcNAc-Asn analogue, 11] | 640
CC(=O)NC1C(NC(=O)CN)OC(CO)C(O)C1O (stereo not given) [GlcNAc-Asn analogue, 10] | 750
O=C(O)CC(Cl)C(=O)O [L-2-Chlorosuccinic acid, 3] | 7700
N[C@H](CP(=O)(O)O)C(=O)O [CAS_23052-80-4] | 900
CC(=O)NC1C(NC(=O)CBr)OC(CO)C(O)C1O (stereo not given) [GlcNAc-Asn analogue, 12] | 560
O=C(O)CC(Br)C(=O)O [L-2-bromosuccinic acid, 4] | 2700
